Measurements from article PMC10535864, “Novel Aminopyrimidine-2,4-diones, 2-Thiopyrimidine-4-ones, and 6-Arylpteridines as Dual-Target Inhibitors of BRD4/PLK1: Design, Synthesis, Cytotoxicity, and Computational Studies” (Pharmaceuticals, 2023).

What was measured:
BRD4 (BD2) = target: T1, BRD4 (BD2) (Homo sapiens, UniProt O60885); assay: BRD4 inhibitory activity assay (AlphaLISA Bromodomain Assay); format: binding; conditions: for %inh: BRD4 Lab Report;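 as to all read-outs here: in vitro inhibition of recombinant BRD4 BD2 bromodomain binding to a BET bromodomain ligand, read by AlphaLISA proximity signal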
T1 construct: BRD4 (BD2) should be thawed on ice; purchased
Method: The BRD4 and PLK1 inhibitory assays were carried out in vitro in accordance with the manufacturer’s instructions; BRD4 was assessed using AlphaLISA Bromodomain Assay Protocol [67], and PLK1 kinase was tested using the ADP-Glo™ Kinase Assay Protocol [68], as detailed in the Supplementary file.
The BRD4 and PLK1 inhibitory assays were carried out in vitro in accordance with the manufacturer's instructions; BRD4 was assessed using AlphaLISA Bromodomain Assay Protocol [67], and PLK1 kinase was tested using the ADP-Glo™ Kinase Assay Protocol [68],
The master mixture was prepared as follows: N wells × (2.5 µL 3x BRD Homogeneous Assay Buffer 1 + 1 µL BET Bromodomain Ligand + 1.5 µL H2O). BRD4 (BD2) should be thawed on ice. Simply, the protein-containing tube was spined to recover the full content of the tube after the firstthaw. Both proteins should be aliquoted into single-use aliquots. Immediately, any remaining undiluted protein should be stored in aliquots at -80°C. BRD4 (BD2) was diluted in 1x BRD Homogeneous Assay Buffer 1 at 4 ng/µL. The diluted proteins were kept on ice until they were used. 5 µl of the master mixture is added to each well designated for the “Positive Control”, “Test Inhibitor”, and “Blank”. For the “Substrate Control”, 2.5 µL 3x BRD Homogeneous Assay Buffer 1 + 1 µL Non-acetylated Ligand 1 + 1.5 µL H2O is added. Each “Test Inhibitor” well received 2.5 µL of inhibitor solution, while the “Positive
Control”, “Substrate Control”, and “Blank” wells received 2.5 µL of the same solution without inhibitor (inhibitor buffer). Then, the “Blank” well is filled with 2.5 µL of 1x BRD Homogeneous Assay Buffer 1. After that, GSH
10 µL per well is added, the plate isshaken, and itis incubated at room temperature for 30 minutes. Streptavidin-
10 µL is added per well and incubated at room temperature for further 15 – 30 minutes [67]. The Alpha counts were read using the EnVision® multimode plate reader with the standard Alpha detection settings.

[1] = MTT cytotoxicity assay, U-937; format: cell-based; conditions: Homo sapiens, U-937, U937, MTT;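 also: Six-dose MTT colorimetric assay on cell monolayers, formazan absorbance read at 560 nm with 620 nm background removed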
U-937 renal cancer cells = assay: MTT cytotoxicity assay, U-937; format: cell-based; conditions: MTT; for Toxicity %: U937;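 as to all read-outs here: Six-dose MTT colorimetric assay on cell monolayers, formazan absorbance read at 560 nm with 620 nm background removed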
normal Vero cells = assay: MTT cytotoxicity assay, normal Vero cells; format: cell-based; conditions: Vero, MTT
Method: (§2) Using a six-dose MTT colorimetric assay [44, 66], all new synthetic compounds were tested for cytotoxicity against three cancer cell lines: MDA-MB-231 breast cancer cells, HT-29 colorectal adenocarcinoma cells, and U-937 renal cancer cells. […] These cell lines were supplied by ATCC (American Type Culture Collection) via the Holding company for biological products and vaccines (VACSERA, Cairo, Egypt). The reference control used was Methotrexate.
1.1.In-vitro cytotoxicity screening
(§3) Using a six-dose MTT colorimetric assay [44, 66], allnew synthetic compounds were tested for cytotoxicity against three cancer cell lines: MDA-MB-231 breast cancer cells,HT-29 colorectal adenocarcinoma cells, and U-937 renal
(§4) The cell lines were supplied by ATCC (American Type Culture Collection). The reference control used was Methotrexate. The cytotoxic activities of the examined compounds were quantified by inoculating a 96-well tissue culture plate with 1 X 10^5 cells / mL (100 uL/well) and incubating it at 37°C for 24 hours to develop a complete monolayer sheet. After forming a confluent sheet of cells, the growth medium was decanted from 96-well microtiter plates, and the cell monolayer was washed twice with wash media. Two-fold dilutions of tested samples were made in RPMI medium with 2% serum (maintenance medium), and 0.1 mL of each dilution was tested in different wells, with three wells serving as controls and receiving only maintenance medium. Following that, the plate was incubated at 37°C and examined. Cells were investigated for any physical signs of toxicity, such as partial or complete monolayer loss, rounding, shrinkage, or cell granulation. MTT solution was prepared (5mg/ml in PBS) (BIO BASIC CANADA INC), and 20 uL MTT solution was added to each well. After 5 minutes on a shaking table at150 rpm to thoroughly mix the MTT into the media, it was incubated (37C, 5% CO2) for 4 hours to allow the MTT to be metabolized. Formazan (MTT metabolic product) was resuspended in 200 uL DMSO and shaken at 150 rpm for 5 minutes to thoroughly mix the formazan into the solvent. The optical density was measured at 560 nm, and the background was subtracted at 620 nm. Finally, the IC50 of the test compound in comparison to the reference was calculated using the GraphPad Prism software.

[2] = MTT cytotoxicity assay, normal Vero cells; format: cell-based; conditions: African green monkey, normal Vero cells, MTT
Method: as §2
1.1.In-vitro cytotoxicity screening
as §3, §4

human recombinant PLK1 = human recombinant PLK1 (Homo sapiens, UniProt P53350); assay: PLK1 inhibitory activity assay (ADP-Glo Kinase Assay); format: biochemical; conditions: for %inh: PLK1 Lab Report
[3] = tested on: MDA-MB-231 breast cancer cells; assay: MTT cytotoxicity assay, MDA-MB-231; format: cell-based; conditions: MDA-MB-231, MTT
Method in brief: (§1)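 Cells seeded at 1 X 10^5 cells/mL and grown 24 h at 37°C to a monolayer, then exposed to two-fold compound dilutions in RPMI with 2% serum, six doses. MTT added for 4 h at 37°C, formazan dissolved in DMSO, OD read at 560 nm minus 620 nm background. IC50 from dose-response.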

[4] = tested on: HT-29 colorectal adenocarcinoma cells; assay: MTT cytotoxicity assay, HT-29; format: cell-based; conditions: MTT
Method in brief: as §1

human recombinant PLK1, sequence (P53350 whole entry): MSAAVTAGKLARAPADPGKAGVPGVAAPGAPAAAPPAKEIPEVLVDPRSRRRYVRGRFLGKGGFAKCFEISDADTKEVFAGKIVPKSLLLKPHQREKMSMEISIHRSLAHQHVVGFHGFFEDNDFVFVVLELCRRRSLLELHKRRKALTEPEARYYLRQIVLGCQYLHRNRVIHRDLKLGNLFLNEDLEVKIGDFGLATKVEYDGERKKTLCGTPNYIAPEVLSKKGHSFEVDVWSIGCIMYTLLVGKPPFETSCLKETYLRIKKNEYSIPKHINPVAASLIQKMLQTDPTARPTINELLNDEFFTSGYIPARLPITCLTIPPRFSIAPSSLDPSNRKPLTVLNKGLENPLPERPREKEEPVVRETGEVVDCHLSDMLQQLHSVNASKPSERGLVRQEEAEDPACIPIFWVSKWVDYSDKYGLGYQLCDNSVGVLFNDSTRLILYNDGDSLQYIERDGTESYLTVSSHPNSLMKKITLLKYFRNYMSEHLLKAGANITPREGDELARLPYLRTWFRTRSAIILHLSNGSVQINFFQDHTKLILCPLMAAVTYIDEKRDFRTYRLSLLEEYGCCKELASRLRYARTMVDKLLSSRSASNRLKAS

Cn1c(SCC(=O)c2ccccc2)nc(=O)c(/N=C(/CBr)c2ccccc2)c1N [Compound 7, (E)-6-Amino-5-((2-bromo-1-phenylethylidene)amino)-1-methyl-2-((2-oxo-2-phenylethyl)thio)pyrimidin-4(1H)-one]
%inh (BRD4 (BD2); conc 0.01 (unit not given)): 38%
%inh (BRD4 (BD2); conc 0.1 (unit not given)): 56%
%inh (BRD4 (BD2); conc 1 (unit not given)): 74%
%inh (BRD4 (BD2); conc 10 (unit not given)): 89%
%inh (BRD4 (BD2); conc 100 (unit not given)): 95%
IC50 (BRD4 (BD2); mean of three independent experiments, read-out: BRD4 IC50 ± SD): 0.042 ± 0.002 µM
viability at 0.312 µM ([1]; 0.312 uM): 94%
viability at 0.625 µM ([1]; 0.625 uM): 88.3%
viability at 1.25 µM ([1]; 1.25 uM): 55.4%
viability at 2.5 µM ([1]; 2.5 uM): 39.7%
viability at 5 µM ([1]; 5 uM): 29.6%
viability at 10 µM ([1]; 10 uM): 11.4%
IC50 (U-937 renal cancer cells; Homo sapiens, U-937, mean of three independent experiments ± SD, read-out: IC50 Value U-937): 1.85 ± 0.04 µM
Toxicity % (U-937 renal cancer cells; 0.312 uM): 5.991%
Toxicity % (U-937 renal cancer cells; 0.625 uM): 11.66%
Toxicity % (U-937 renal cancer cells; 1.25 uM): 44.55%
Toxicity % (U-937 renal cancer cells; 2.5 uM): 60.35%
Toxicity % (U-937 renal cancer cells; 5 uM): 70.37%
Toxicity % (U-937 renal cancer cells; 10 uM): 88.56%
Toxicity % (normal Vero cells; 0.312 uM): 0.3992%
Toxicity % (normal Vero cells; 0.625 uM): 0.1996%
Toxicity % (normal Vero cells; 1.25 uM): 2.395%
Toxicity % (normal Vero cells; 2.5 uM): 26.55%
Toxicity % (normal Vero cells; 5 uM): 68.38%
Toxicity % (normal Vero cells; 10 uM): 89.46%
IC50 ([2]; mean of three independent experiments ± SD, read-out: In Vitro Cytotoxicity against Normal Cells IC50 Value, Vero Cells): 3.92 ± 0.08 µM
viability at 0.312 µM ([2]; Vero, 0.312 uM): 99.6%
viability at 0.625 µM ([2]; Vero, 0.625 uM): 99.8%
viability at 1.25 µM ([2]; Vero, 1.25 uM): 97.6%
viability at 2.5 µM ([2]; Vero, 2.5 uM): 73.5%
viability at 5 µM ([2]; Vero, 5 uM): 31.6%
viability at 10 µM ([2]; Vero, 10 uM): 10.5%
%inh (human recombinant PLK1; conc 0.01 (unit not given)): 43%
%inh (human recombinant PLK1; conc 0.1 (unit not given)): 60%
%inh (human recombinant PLK1; conc 1 (unit not given)): 76%
%inh (human recombinant PLK1; conc 10 (unit not given)): 90%
%inh (human recombinant PLK1; conc 100 (unit not given)): 95%
IC50 (human recombinant PLK1; mean of three independent experiments, read-out: PLK1 IC50 ± SD): 0.02 ± 0.001 µM
IC50 ([3]; Homo sapiens, mean of three independent experiments ± SD, read-out: IC50 Value MDA-MB-231): 0.4 ± 0.01 µM
viability at 0.312 µM ([3]; Homo sapiens, 0.312 uM): 57%
viability at 0.625 µM ([3]; Homo sapiens, 0.625 uM): 28.9%
viability at 1.25 µM ([3]; Homo sapiens, 1.25 uM): 16.5%
viability at 2.5 µM ([3]; Homo sapiens, 2.5 uM): 11.7%
viability at 5 µM ([3]; Homo sapiens, 5 uM): 11%
viability at 10 µM ([3]; Homo sapiens, 10 uM): 4.92%
Toxicity % ([3]; 0.312 uM): 42.95%
Toxicity % ([3]; 0.625 uM): 71.14%
Toxicity % ([3]; 1.25 uM): 83.51%
Toxicity % ([3]; 2.5 uM): 88.25%
Toxicity % ([3]; 5 uM): 88.96%
Toxicity % ([3]; 10 uM): 95.08%
Toxicity % ([4]; HT29, 0.312 uM): 0.04307%
Toxicity % ([4]; HT29, 0.625 uM): 45.56%
Toxicity % ([4]; HT29, 1.25 uM): 86.39%
Toxicity % ([4]; HT29, 2.5 uM): 88.67%
Toxicity % ([4]; HT29, 5 uM): 93.28%
Toxicity % ([4]; HT29, 10 uM): 93.71%
viability at 0.312 µM ([4]; Homo sapiens, HT-29, HT29, 0.312 uM): 100%
viability at 0.625 µM ([4]; Homo sapiens, HT-29, HT29, 0.625 uM): 54.4%
viability at 1.25 µM ([4]; Homo sapiens, HT-29, HT29, 1.25 uM): 13.6%
viability at 2.5 µM ([4]; Homo sapiens, HT-29, HT29, 2.5 uM): 11.3%
viability at 5 µM ([4]; Homo sapiens, HT-29, HT29, 5 uM): 6.72%
viability at 10 µM ([4]; Homo sapiens, HT-29, HT29, 10 uM): 6.29%
IC50 ([4]; Homo sapiens, HT-29, mean of three independent experiments ± SD, read-out: IC50 Value HT-29): 0.79 ± 0.01 µM
